Eight molecules from patent US6864249B2, “Piperidine and azetidine thrombin inhibitors” (LG Life Sciences, Ltd., priority 1998, dated 2005) can be followed below.

Where a name gives a salt, the structure may show the parent alone. Read-outs that look alike come from different tables or passages of the source.

The Tmax is the time at which the peak concentration occurs. By AUC is commonly meant concentration integrated over time. The Cmax is the maximum level reached in the sampled fluid or tissue. The Ki is the dissociation constant of the complex between target and ligand, obtained from inhibition or displacement. Read a high Ki as a looser hold on the target.

Data set [1] in a line: Pharmacokinetic study for oral bioavailability in rats. The format is in vivo, Male Sprague-Dawley rats. As to conditions: oral dosing in rats, 30 mg/kg. The method, then: Pharmacokinetic Studies for Determining Oral Bioavailability
Male Sprague-Dawley rats (250-300 g) were restrained individually in a surgical plate (Dae Jong Instrument Company, Seoul, Korea) as supine position. The femoral artery and the femoral vein (iv only) of rats were cannulated with polyethylene tubing (PE-50, Clay Adams, Parsippany, N.J., USA) under light ether anesthesia. After complete recovery from anesthesia, rats were given 30 mg/kg of test compound dissolved in distilled water via oral gavage or given 10 mg/kg via the femoral vein for intravenous (iv) study. Blood samples (0.25 mL) were collected from the femoral artery at 0 (for control), 1 (iv only), 5, 15, 30, 60, 90 (iv only), 120, 180, and 240 min after dosing.
Blood samples were taken into heparinized tube (25 U/mL), deproteinized with 2 volumes of methanol, and centrifuged. The resulting supernatant (60 μL) was analyzed by HPLC eluting with a mixture of 0.1% trifluoroacetic acid aqueous solution and acetonitrile with a ratio of 81% to 19%. Plasma concentration of test compound was recorded and used to calculate the pharmacokinetic parameters: maximum plasma concentration of test compound (Cmax), time of maximum plasma concentration (Tmax) area under the curve (AUC), and fraction of test compound absorbed (F).
Table 2 illustrates the pharmacokinetic results for some exemplary compounds of invention obtained upon oral dosing in rats.

Another data set relates to thrombus formation. Briefly: Rat venous thrombosis model (thromboplastin infusion and vena cava stasis, clot weight). The format is in vivo, Male Sprague-Dawley rats. As to conditions: 1 mg/kg iv bolus 5 min before thromboplastin infusion. The method, then:
In vivo Studies of the Compounds Claimed Herein Were Conducted Using the Following Procedure
Male Sprague-Dawley rats (body weights 250-300 g, 3-4/group) were anaesthetized by intraperitoneal injection with urethane solution (1.25 g/kg). […] The venae iliolumbar and spermatica were ligated with a silk thread. Thrombus formation was initiated by infusion of a thromboplastin preparation (Simplastin®) using an infusion pump (Model 100, IITC Life Science, USA) via the left femoral vein at 0.5 mL/kg/min. Simplastin® (Organon Teknika, USA) was reconstituted with 4 mL of distilled water and then given diluted at 1:2.5 in distilled water. At the start of infusion for 30 seconds, the vena cava was ligatured below the left renal vein. After the end of infusion, vena cava was also ligatured above the iliac veins 16 mm apart from upper ligature. After 15 min of stasis, the thrombus formed inside the vessel was carefully removed and weighed. Before wighing, the excess blood was removed by blotting the wet clot on the wet Whatman filter paper (see, Millet, J.; Theveniaux, J.; Brown, N. L. Thromb. Haemost. 1992, 67, 176).
Saline (control) or test compounds (1 mg/kg) were injected as a bolus via the femoral vein starting 5 min before the thromboplastin infusion. Bolus injection volume was 0.5 mL/kg. Antithrombotic activity was expressed as a percentage where: Antithrombotic activity (%)=100×(A−B)/A • A=mean clot weight of control group • B=mean clot weight of test compound group

Data set [2] has as its target T1, Thrombin prepared from human plasma (Homo sapiens, UniProt P00734).
T1 construct: Thrombin used in this test was prepared from human plasma; from tissue; host or cells: human plasma
Briefly: In vitro enzyme assay for thrombin inhibition constants (Chromozym TH substrate, Dixon plot). The format is biochemical. The following applies: pH 7.8, room temperature. The method, then: In vitro Enzyme Assays for Determining Inhibition Constants
The activity of thrombin was measured spectrophotometrically using tosyl-Gly-Pro-Arg-p-nitroanilide acetate (Chromozym TH, Boehringer Mannheim) as a substrate. […] Each compound was dissolved in DMSO to make a 1 mM stock solution and dilutions were made thereof with assay buffer (0.1 M Tris HCl, 0.15 M NaCl, 0.1% polyethylene glycol 8000, pH 7.8). Different concentrations of inhibitor were mixed with […] of thrombin in 0.8 mL of the buffer. The mixture was incubated for 10 min at room temperature before adding 0.2 mL of the substrate to a final concentration of 20 μM. […] A graph for the reciprocal value of initial velocity to the inhibitor concentration was derived from progress curves by fitting the data using a linear regression program.

[3] abbreviates: male, Sprague-Dawley, rat, plasma.
The mark [4] stands for this setting: male, Sprague-Dawley, rat, plasma, read-out: Cmax.

As for `N=C(N)c1ccc(CNC(=O)[C@@H]2CCCN2C(=O)[C@H](NS(N)(=O)=O)C(c2ccccc2)c2ccccc2)s1` [Example 1, N-aminosulfonyl-D-diphenylalanyl-L-prolyl-[(5-amidino-2-thienyl)methyl]amide.TFA], in data set [1] (setting [3]), the Tmax was 60 min. For the same molecule, in data set [1] (male, Sprague-Dawley, rat, plasma, read-out: AUC (converted)), the AUC was 4220 ng·h/mL. The Cmax in data set [1] amounted to 2200 ng/mL. Also, the “Antithrombotic activity (inhibition of thrombus formation)” value with thrombus formation was found to be 100%.

As for `CS(=O)(=O)N[C@@H](C(=O)N1CCC[C@H]1C(=O)NCc1ccc(C(=N)N)s1)C(c1ccccc1)c1ccccc1` [Example 3, N-methylsulfonyl-D-diphenylalanyl-L-prolyl-[(5-amidino-2-thienyl)methyl]amide.TFA], the affinity in data set [2] corresponds to a Ki of 0.004 nM. Moreover, the “Antithrombotic activity (inhibition of thrombus formation)” value in the data set with thrombus formation turned out to be 100%.

Molecule `N=C(N)c1csc(CNC(=O)[C@@H]2CCCN2C(=O)[C@H](NS(N)(=O)=O)C(c2ccccc2)c2ccccc2)c1` [Example 11, N-aminosulfonyl-D-diphenylalanyl-L-prolyl-[(4-amidino-2-thienyl)methyl]amide.TFA] showed a Ki in data set [2] of 0.022 nM. For the same molecule, the Tmax in data set [1] (setting [3]) is 45 min. In data set [1] (setting [4]), the Cmax was determined as 2100 ng/mL. Besides, the AUC in data set [1] came to 4230 ng·h/mL. Besides, the “Antithrombotic activity (inhibition of thrombus formation)” value in the data set with thrombus formation stood at 100%.

In data set [2], `N=C(N)c1cc(CNC(=O)[C@@H]2CCCN2C(=O)[C@H](NS(N)(=O)=O)C(c2ccccc2)c2ccccc2)cs1` [Example 15, N-aminosulfonyl-D-diphenylalanyl-L-prolyl-[(5-amidino-3-thienyl)methyl]amide.TFA] had a Ki of 0.056 nM. Further, the “Antithrombotic activity (inhibition of thrombus formation)” value in the data set with thrombus formation is given as 100%.

`COC(=O)N[C@@H](C(=O)N1CCC[C@H]1C(=O)NCc1csc(C(=N)N)c1)C(c1ccccc1)c1ccccc1` [Example 19, N-methoxycarbonyl-D-diphenylalanyl-L-prolyl-[(5-amidino-3-thienyl)methyl]amide.TFA] yielded a Ki in data set [2] of 0.06 nM. Further, the Tmax in data set [1] (setting [3]) was 80 min. Further, in data set [1] (setting [4]), the Cmax was determined as 5200 ng/mL. The molecule further showed an AUC in data set [1] of 21620 ng·h/mL. The “Antithrombotic activity (inhibition of thrombus formation)” value with thrombus formation is 100%.

The molecule `N=C(N)c1ccc(CNC(=O)[C@@H]2CCCN2C(=O)[C@H](NCC(=O)O)C(c2ccccc2)c2ccccc2)s1` [Example 29, N-carboxymethyl-D-diphenylalanyl-L-prolyl-[(5-amidino-2-thienyl)methyl]amide.2TFA] had a Ki in data set [2] of 0.015 nM. Further, in data set [1] (setting [3]), the Tmax was 15 min. In addition, in data set [1], the AUC was 23170 ng·h/mL and the Cmax was 9500 ng/mL. In addition, in the data set on thrombus formation, the “Antithrombotic activity (inhibition of thrombus formation)” value came to 100%.

In data set [2], `N=C(N)c1csc(CNC(=O)[C@@H]2CCCN2C(=O)[C@H](NCC(=O)O)C(c2ccccc2)c2ccccc2)n1` [Example 40, N-carboxymethyl-D-diphenylalanyl-L-prolyl-[(4-amidino-2-thiazolyl)methyl]amide.2TFA] showed a Ki of 0.6 nM. In addition, the Tmax in data set [1] (setting [3]) is 25 min. In data set [1], this molecule came in with an AUC of 18770 ng·h/mL and a Cmax of 11100 ng/mL.

`N=C(N)c1ccc(CNC(=O)[C@@H]2CCCN2C(=O)[C@H](NCCC(=O)O)C(c2ccccc2)c2ccccc2)s1` [Example 41, N-(2-carboxyethyl)-D-diphenylalanyl-L-prolyl-[(5-amidino-2-thienyl)methyl]amide.2TFA] registered an inhibitory constant (Ki) in data set [2] of 0.011 nM. Further, the Tmax in data set [1] (setting [3]) is 20 min. In data set [1], the area under the curve (AUC) was 8380 ng·h/mL and the Cmax stood at 4900 ng/mL. Besides, the “Antithrombotic activity (inhibition of thrombus formation)” value with thrombus formation is on record as 100%.
